Consider one substance from paper PMC2488398, “Concurrence of Danish Dementia and Cataract: Insights from the Interactions of Dementia Associated Peptides with Eye Lens α-Crystallin” (PLoS ONE, 2008).

In the test the test system is rat lens. Description: Lens protein content in peptide-treated rat lenses. The note with it: 10 µM peptide, 96 h. It is filed as cell-based, Wistar rat. As to the method: Eyes were enucleated from 4 months old Wistar rats, obtained from National Center for Laboratory Animal Services, National Institute of Nutrition, Hyderabad immediately after sacrifice by cervical dislocation. Animal care and protocols were in accordance with and approved by Institutional Animal Ethics Committee. Lenses were dissected from the eyes by anterior approach. Each isolated lens was incubated in 2 ml of modified of TC-199 (Sigma) medium with antibiotics. Osmolarity of the medium was adjusted to 295 milli osmomoles using an osmometer (Micro Osmometer; Model-210, Fiske Associates, Norwood, MA, USA). Lenses were cultured as described previously, [33]. Lenses were incubated at 37°C under 95% air and 5% CO2 in the absence or presence of the various dementia associated peptides dissolved in DMSO for a period of 96 h. All the reagents/chemicals used for lens organ culture were filtered through 0.2 µm Millipore disc filters. Final concentration of a given dementia associated peptides in the culture medium was kept at 10 µM. Medium was changed every 24 h. At the end of incubation, lenses were kept on a grid (12/cm) for assessing the transparency by placing them above a light source.
Lenses were homogenized in 10 vol. of 0.05 M Tris buffer (pH 8.0), containing 0.1 M NaCl and 0.02% sodium azide. The homogenate was centrifuged at 15 000 g for 30 min at 4°C and the resulting supernatant was collected (soluble fraction). The pellet was washed thrice and constituted in the same buffer (insoluble fraction). Protein content in soluble and insoluble fractions was estimated by Lowry's method.

For the substance “Aβ (1–42): column label of Table 1; text gives the same value for Aβ-40”, the Insoluble protein (15 000 g pellet, Lowry's method, Control 95) is 145 mg/g lens. Also, for the setting “15 000 g supernatant, Lowry's method, Control 421”, the Soluble protein is on record as 310 mg/g lens. For the setting “Lowry's method, Control 518”, this substance displayed a Total protein of 464 mg/g lens. Further, the “% Soluble protein” value (in relation to the amount of total protein, Control 81) came to 67%.
